Data reported in patent US9701645B2 (priority 2005, dated 2017).

Assays:
[1] = test system: reserpine treated rats; assay: Locomotor activity in reserpine treated rats; type: in vivo, rat; conditions: compound 18 hours after reserpine, 3, 10 or 30 mg/kg, total counts over 1 h
Experimental: (§1) Behavioral parameters were monitored in transparent shoebox cages that measured 45×25×20 cm, with a 1-cm depth of wood chips on the cage floor and a plastic grid on top of the cage. Rectangular photocell monitors with a bank of 3 photocell beams surrounded each test cage. Ambulations (locomotor activity: total number of beam breaks in 1 hour) were recorded by computer and stored for each test session.
(§2) Animals were administered injections of dextrose, reserpine or haloperidol. Formula (i) or Formula (ii) was then administered 18 hours after reserpine at doses of 3, 10 or 30 mg/kg or 15 minutes after haloperidol at doses of 1, 3, 10 or 30 mg/kg. Animals were monitored over a 60-min period in all instances, and data are expressed as total counts over the entire 1 h test period. […] In these studies, clinically effective therapies such as dopamine replacement therapy restore locomotor activity in dopamine-depleted or dopamine antagonist treated animals. Dopamine replacement therapy also, however, produces an overshoot in locomotor activity beyond the locomotor counts observed with normal control animals (with intact dopamine systems). This is considered the activating component of dopamine replacement therapy that results in dyskinesias in Parkinson's patients.

[2] = test system: haloperidol-treated rats; assay: Locomotor activity in haloperidol treated rats; type: in vivo, rat; conditions: haloperidol treated rats, compound 15 minutes after haloperidol, 1, 3, 10 or 30 mg/kg, total counts over 1 h
Experimental: as §1, §2

[3] = test system: mice; assay: Seizure-like convulsion incidence in mice; type: in vivo, mouse
Text: One of the most obvious side-effects of potent delta agonists that rapidly penetrate the blood brain barrier is convulsive episodes reminiscent of possible seizure-like brain activity. The mouse is the chosen species for study of these effects since the mouse is the most highly convulsion-sensitive rodent species and mice present with a clear and obvious, whole body tonic-clonic convulsion. One of the earliest phases of delta agonist safety assessments is thus the determination of the convulsion threshold in mice.

[4] = test system: Parkinson's disease rodent models; assay: Parkinson's disease rodent models (summary statements); type: in vivo, rat; conditions: oral
Experimental: as §1, §2
An opioid receptor agonist selective for the delta receptor. • 2. Active in Parkinson's disease rodent models. • a. Potent at improving locomotor activity of haloperidol-treated rats. • b. Potent at improving locomotor activity in reserpine treated rats. • 3. Orally active in Parkinson's disease rodent models. • a.

[5] = molecular target: T1, mu-opioid receptor (Rattus norvegicus, UniProt P33535); conditions: known results of SNC80; read-out: Receptor Binding Affinity, Ki Mu; cited from earlier work
T1 construct: delta and mu receptors from rat whole brain homogenate; from tissue; host or cells: rat whole brain homogenate (membrane fractions)

[6] = molecular target: T2, kappa-opioid receptor (Cavia porcellus, UniProt P41144); conditions: known results of SNC80; read-out: Receptor Binding Affinity, Ki Kappa; cited from earlier work
T2 construct: kappa receptors from guinea pig cerebellar homogenate; from tissue; host or cells: guinea pig cerebellar homogenate (membrane fractions)

[7] = test system: mice; conditions: cited from earlier work
[8] = test system: rats; conditions: cited from earlier work
[9] = test system: rats treated with reserpine or dopamine receptor antagonists (haloperidol or SCH23390); conditions: 10 mg/kg i.p.; cited from earlier work
[10] = test system: MPTP-treated marmosets; conditions: cited from earlier work

T1 sequence (P33535 whole entry): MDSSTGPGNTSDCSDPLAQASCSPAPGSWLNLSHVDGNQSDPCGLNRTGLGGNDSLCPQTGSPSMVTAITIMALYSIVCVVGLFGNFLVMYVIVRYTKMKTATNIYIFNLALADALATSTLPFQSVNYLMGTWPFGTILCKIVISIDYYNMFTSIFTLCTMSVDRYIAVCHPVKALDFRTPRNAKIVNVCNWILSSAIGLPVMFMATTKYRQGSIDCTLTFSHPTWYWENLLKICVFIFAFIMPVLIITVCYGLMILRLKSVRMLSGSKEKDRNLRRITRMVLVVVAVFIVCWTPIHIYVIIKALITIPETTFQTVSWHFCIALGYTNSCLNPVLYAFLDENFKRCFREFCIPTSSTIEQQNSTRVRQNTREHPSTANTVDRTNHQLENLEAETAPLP
T2 sequence (P41144 whole entry): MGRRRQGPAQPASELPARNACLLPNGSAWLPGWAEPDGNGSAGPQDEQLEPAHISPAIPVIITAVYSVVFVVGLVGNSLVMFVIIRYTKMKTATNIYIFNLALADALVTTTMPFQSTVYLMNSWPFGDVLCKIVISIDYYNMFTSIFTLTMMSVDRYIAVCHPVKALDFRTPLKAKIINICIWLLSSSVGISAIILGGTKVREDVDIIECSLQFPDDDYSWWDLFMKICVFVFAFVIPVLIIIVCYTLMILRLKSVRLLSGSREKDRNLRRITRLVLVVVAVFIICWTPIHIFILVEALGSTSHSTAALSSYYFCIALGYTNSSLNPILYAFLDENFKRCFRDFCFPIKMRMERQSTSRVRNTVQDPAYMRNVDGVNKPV

C=CCN1C[C@H](C)N([C@H](c2ccc(C(=O)N(CC)CC)cc2)c2cccc(OC)c2)C[C@H]1C [SNC80]
Efficacy on locomotor activity (FIG. 1) [1]: clear efficacy
Efficacy on locomotor activity (FIG. 1) [2]: clear efficacy
Seizure-like convulsion incidence in mice (% of animals treated) ([3]; Intravenous 0.3 mg/kg): 0%
Seizure-like convulsion incidence in mice (% of animals treated) ([3]; Intravenous 1 mg/kg): 30%
Seizure-like convulsion incidence in mice (% of animals treated) ([3]; Intravenous 3 mg/kg): 100%
Oral activity in Parkinson's disease rodent models [4]: lack of oral activity
Ki [5]: 4.8 µM
Ki [6]: 4.1 µM
Seizure-like convulsions (Broom, et al., 2002) [7]: produce seizure-like convulsions
Seizure-like convulsions (Broom, et al., 2002) [8]: produce seizure-like convulsions
Behavioral deficits (ambulatory behavior, grooming, rearing, social interaction and exploration, static investigation) [9]: restored behavioral deficits
Parkinsonian posture induced by MPTP treatment [10]: not statistically reversed
Motor activity, bradykinesia and disability scores ([10]; similar dose levels (10 mg/kg)): restored motor activity, bradykinesia and disability scores to normal
